The results in this text go back to patent US20050282159A1, “Rpob gene of streptomyces, primer specific to streptomyces, and identification method of streptomyces having rifampin resistance or sensitivity by using the same” (priority 2001, published 2005).

Test [1] relates to S. atroolvaceous KCTC 9017. The experiment in a line: rifampin genotype by rpoB nucleotide sequence analysis. The protocol: (§1) The primer sets of SEQ ID NOs: 1 and 2 were used to amplify rpoB genes of 60 strains, and nucleotides of the […] products were analyzed with an automatic sequencer. SRPOF1 as a forward primer and SRPOR1 as a backward primer were used.
(§2) FIG. 8 is an electropherogram obtained by amplifying 306-bp rpoB gene fragment with the SRPOF1 and SRPOR1 primer set and automatically sequencing with an SRPOF1 primer.

A further test concerns S. humidus KCCM 40647. The test is described as above. The protocol: as §1, §2
Test [2] relates to S. anthocyanicus KCTC 9755. The description is as above. The following applies: AAC genotype. The protocol:
as §1, §2

The test system of test [3] is S. flavotricini KCCM 40520. The following applies: TCG (TCC) genotype.
Description: The primer sets of SEQ ID NOs: 1 and 2 were used to amplify rpoB genes of 60 strains, and nucleotides of the 352-bp products were analyzed with an automatic sequencer. SRPOF1 as a forward primer and SRPOR1 as a backward primer were used.
Another test relates to S. coralus KCCM 40642. Briefly: rifampin genotype by rpoB nucleotide sequence analysis. The following applies: TCG (TCC) genotype. As for the experimental part: as §1
In the next test the test system is S. caseius KCCM 40740. The test is described as above. The following applies: TCG (TCC) genotype. The protocol: as §1
The test system of a further test is S. anabdii KCTC 9687. Described as above. The following applies: TCG (TCC) genotype. The protocol: as §1
For another test, the system named is 60 strains. The experiment in a line: rifampin genotype by rpoB nucleotide sequence analysis (summary). More on the design: species or system Streptomyces. The following applies: the other 41 strains with TCG or TCC at the 352nd position. The protocol:
as §1

Another test concerns S. catenulae KCTC 9223. The experiment in a line: rifampin-sensitive test on Bennet solid media. More on the design: key: “(+)” indicates a genotype with rifampin-resistance; “(−)” indicates a genotype with rifampin-susceptibility. It is filed as cell-based. The following applies: TCG (TCC) genotype, 25 ug/ml rifampin, 72 hr. The protocol:
(§3) The 47 strains were respectively cultured at 28° C. for 72 hr in Bennet liquid media. The culture solution was then inoculated on Bennet solid media (yeast extract 1 g/L, Beef extract 1 g/L, Tryptone 2 g/L, Glycerol 10 g/L, Agar 15 g/L) containing 25 ug/ml rifampin, and after incubation for 72 hr, rifampin-resistance was tested.

The test system of test [4] is S. griseus griseus KCTC 9080. The experiment in a line: rifampin-sensitive test on Bennet solid media. The test is classed as cell-based. More on the design: key: “(+)” indicates a genotype with rifampin-resistance; “(−)” indicates a genotype with rifampin-susceptibility. The following applies: AAC genotype, 25 ug/ml rifampin, 72 hr. The protocol:
as §3

Test [5] deals with S. cuspidosporus KCTC 9718. The experiment in a line: rifampin-sensitive test on Bennet solid media. The test is classed as cell-based. Also on record: key: “(+)” indicates a genotype with rifampin-resistance; “(−)” indicates a genotype with rifampin-susceptibility. The following applies: AAC genotype, 25 ug/ml rifampin, 72 hr. As for the experimental part: as §3

For the compound `CO[C@H]1/C=C/O[C@@]2(C)Oc3c(C)c(O)c4c(O)c(c(/C=N/N5CCN(C)CC5)c(O)c4c3C2=O)NC(=O)/C(C)=C\C=C\[C@H](C)[C@H](O)[C@@H](C)[C@@H](O)[C@@H](C)[C@H](OC(C)=O)[C@@H]1C` [rifampin], the “rifampin resistance or sensitivity of the strain” value in test [1] (S. atroolvaceous (KCTC9017), TCG genotype, identical to the known sensitivity results) is recorded as “rifampin-sensitive strains”; in the test with S. humidus KCCM 40647 (S. humidus (KCCM 40647), TCG genotype, identical to the known sensitivity results), “rifampin-sensitive strains”; in test [2] (S. anthocyanicus (KCTC 9755), identical to the known sensitivity results) it was “rifampin-resistant strain”. Besides, the “genotype (rifampin-resistant or -sensitive strain)” value is on record as “−” in test [1] (S. atroolvaceous KCTC 9017, TCG (TCC) genotype); “−” in the test with S. humidus KCCM 40647 (S. humidus KCCM 40647, TCG (TCC) genotype); “+” in test [2] (S. anthocyanicus KCTC 9755); “−” in [3]; “−” in the test with S. coralus KCCM 40642; “−” in the test with S. caseius KCCM 40740. Besides, the “genotype (rifampin-resistant or -sensitive strain)” value in the test on S. anabdii KCTC 9687 was “−”. In addition, the “rifampin genotype of the strains” value in the test on 60 strains is “rifampin-sensitive genotypes”. Besides, the “genotype (rifampin-resistance or susceptibility)” value in the test on S. catenulae KCTC 9223 is reported as “−”; in [4], “+”; in test [5], “+”.
